A short description of series [1]: 225Ac-labeling of ligands in serial dilution, radiochemical yield and 7-day stability by TLC. It is filed as physicochemical. To be noted: 100 kBq actinium-225, 0.2 M ammonium acetate buffer pH 6, after seven days; for RCY NP (7 d): normal phase TLC, silica, 50 mM EDTA pH 7; for RCY RP (7 d): reversed-phase TLC, Alugram RP-CN, acetonitrile/water 7/3. As to the method:
To compare the efficiency of the synthesized chelators and their conjugates, 100 kBq of actinium-225 were incubated with each ligand at different concentrations (10^−5 M; 10^−6 M; 10^−7 M). The radiochemical yield was determined after one hour of reaction time using normal phase and reversed-phase TLC. Whereas one TLC-system was designed to move free actinium-225 with the solvent front, the other system was developed only to move the actinium-225 labeled complexes. Concentration-dependent radiochemical yields for all ligands and 7-day-longterm yields, which were calculated using both TLC systems, are presented in Table 1.
Actinium-225 was purchased as a 0.1 M HCl solution from ITM Munich and used without purification. Stem solutions of all ligands were prepared in concentrations of 10^−2 M and diluted to 10^−6 M using 0.2 M ammonium acetate buffer at pH 6. For concentration-dependent labeling experiments, 10 µL of each ligand stem solution was incubated with 100 kBq of actinium-225 (1–5 µL) and the total volume was adjusted to 100 µL with 0.2 M ammonium acetate buffer at pH 6. For stability analyses, 50 µL of the buffer volume were replaced by 50 µL of 0.2 M ascorbic acid or 50 µL of 2,5-dihydroxy benzoic acid, respectively. Labeling for cell-binding studies was performed using 1.5 MBq of actinium-225 and 4 nmol of the respective PSMA ligand in a total volume of 400 µL adjusted with 0.2 M ammonium acetate buffer at pH 6. Radiolabeling for cell survival studies and all in vivo experiments were performed using 1.5 MBq of actinium-225 and 3.3 nmol of the respective ligand.
All samples were incubated for one hour at room temperature and analyzed afterward. TLC analyses were carried out in two different systems, normal phase on silica plates in 50 mM EDTA solution (pH 7) and reversed-phase on Alugram RP-CN in acetonitrile/water (7/3). TLC plates were imaged using a phosphoimager Amersham Typhoon 5 Scanner (Cytiva Europe GmbH, Freiburg, Germany) after a decay time of at least 7 h. Analytical HPLC was performed using a Jasco HPLC system with RITA analyzer (Elysia-raytest GmbH, Straubenhardt, Germany) for gamma detection on a Phenomenex Phenyl-Hexyl column in water/acetonitrile (+ 0.1% TFA). Radioactivity was measured in Isomed 2100 dose calibrator. Low radioactivity count rates were determined in Isomed 2160 sodium iodide detector. More precise measurements and nuclide identification were carried out on an activity- and efficiency-calibrated HPGe detector CryoPulse 5 (Canberra).

A further series is described as follows: logD7.4 determination. In kind it is physicochemical. To be noted: pH 7.4, 225Ac complex.
For series [2], the system named is LNCaP cells. As to the kind of experiment: CyQUANT direct cell proliferation assay. In kind it is cell-based, human. The note with it: highest applied dose, 4 h of exposure, cell number 24 h after treatment by DNA staining. As to the method:
The treatment response on cellular proliferation was assessed using the CyQUANT direct cell proliferation assay (Thermo Fisher Scientific, Waltham, MA, USA). For this purpose, LNCaP cells were plated in black 96 well cell culture microplates (Greiner Bio-One GmbH, Frickenhausen, Germany) at a density of 2 × 10^4 cells/0.05 mL/well. […] After 1 or 4 h of incubation, the cell culture media was removed and fresh media was added to each well. Cell numbers were subsequently determined 24 h later as per the manufacturer’s protocol. The fluorescence intensity was measured with the Varioskan Flash microplate reader (Thermo Fisher Scientific, Waltham, MA, USA).

Series [3] deals with LNCaP cells. As to the kind of experiment: Colony formation assay. In kind it is cell-based, human. The note with it: for Percentage amount of colonies referred to the non-radioactive control: 8 days colony growth. As to the method:
LNCaP cells were plated in 6-well cell culture microplates (Greiner Bio-One GmbH, Frickenhausen, Germany) at a density of 6 × 10^3 cells/2 mL/well. […] After 1 or 4 h of incubation, the cell culture media was removed and fresh media was added to each well. Plates were then incubated at 37 °C for 8 days and re-fed every 3 to 4 days. […] The plates were scanned with an Amersham Typhoon 5 Scanner (Cytiva Europe GmbH, Freiburg, Germany) and the colonies were counted using the Image-Quant TL software (Version 8.1, Cytiva Europe GmbH, Freiburg, Germany).

A further series relates to LNCaP tumor-bearing mice. The series is described as follows: Biodistribution in LNCaP tumor-bearing SCID mice. In kind it is in vivo, mouse. The text has this: The SCID male mice (ENVIGO, Indianapolis, IN, USA) 6–8 weeks old were subcutaneously injected into the right flank with 10 × 10^6 LNCaP cells (ATCC, Manassas, VA, USA) mixed with Matrigel Matrix (Corning, Corning, NY, USA) at a 1:1 ratio. The tumor growth was continuously monitored by caliper-based measurements. When the tumor volume reached 200–300 mm^3 (i.e., 5–6 weeks after the inoculation of cells), the mice were used for biodistribution studies. The experimental animals were housed in a specific-pathogen-free animal facility. All experiments with animals were performed in accordance with appropriate legal norms (Czech Law No. 246/1992) and with the approval of the Ministry of Education, Youth and Sports (MSMT-35035/2019-3) and approval of the Ethical Committee of Faculty of Medicine and Dentistry, Palacky University in Olomouc. The number of animals was reduced as much as possible (n = 4 per group and time point) for all in vivo experiments.
For biodistribution studies, the radiotracers were diluted with saline. The prepared radiotracers were applied retro-orbitally (r.o.) to the experimental animals at a dose of 50 kBq per mouse corresponding to 10 pmol of the peptide. The tracer injection was carried out under 2% isoflurane anesthesia (FORANE, Abbott Laboratories, Abbott Park, IL, USA) to minimize animal suffering and to prevent animal motion. The mice were sacrificed by cervical dislocation 10 min, 60 min and 24 h post-injection and organs of interest (blood, spleen, pancreas, stomach, intestine, kidneys, liver, heart, lungs, muscle, bone and tumor) were collected. The samples were weighed and the activity was measured on an automatic gamma counter. The radiotracer accumulation was expressed as a percentage of injected dose per gram (%ID/g) of the corresponding organ.

The mark [4] stands for this setting: 1 h incubation time, 0.05 kBq/mL.
The mark [5] stands for this setting: 1 h incubation time, 0.5 kBq/mL.
The mark [6] stands for this setting: 4 h incubation time, 0.05 kBq/mL.
[7] abbreviates: 4 h incubation time, 0.5 kBq/mL.
Setting [8] is: LNCaP tumor-bearing SCID mice, 24 h p.i.

With `C#CCOc1cc(CN2CCOCCOCCN(Cc3cc(OCC#C)cc(C(=O)[O-])n3)CCOCCOCC2)nc(C(=O)[O-])c1.[225Ac+3]` [[^225Ac]Ac-mcp-D-click], the “RCY NP (7 d)” value worked out at 99% in series [1] (ligand 10^−5 M), 99% in series [1] (ligand 10^−6 M) and 50% in series [1] (ligand 10^−7 M). Besides, the results for the “RCY RP (7 d)” value in series [1] (ligand 10^−5 M), in series [1] (ligand 10^−6 M) and in series [1] (ligand 10^−7 M) were 99%, 94% and 40%, respectively.

In the case of `O=C(O)CCCCn1cc(COc2cc(CN3CCOCCOCCN(Cc4cccc(C(=O)[O-])n4)CCOCCOCC3)nc(C(=O)[O-])c2)nn1.[225Ac+3]` [[^225Ac]Ac-mcp-M-COOH], the “RCY NP (7 d)” value in series [1] (ligand 10^−5 M), in series [1] (ligand 10^−6 M) and in series [1] (ligand 10^−7 M) was 99% throughout. The “RCY RP (7 d)” value was found to be 99% in series [1] (ligand 10^−5 M), 99% in series [1] (ligand 10^−6 M) and 96% in series [1] (ligand 10^−7 M).

As to `C#CCOc1cc(CN2CCOCCOCCN(Cc3cccc(C(=O)[O-])n3)CCOCCOCC2)nc(C(=O)[O-])c1.[225Ac+3]` [[^225Ac]Ac-mcp-M-click], the “RCY NP (7 d)” value in series [1] (ligand 10^−5 M) amounted to 99%; in series [1] (ligand 10^−6 M), 99%; in series [1] (ligand 10^−7 M) it was 58%. The results for the “RCY RP (7 d)” value in series [1] (ligand 10^−5 M), in series [1] (ligand 10^−6 M) and in series [1] (ligand 10^−7 M) were 99%, 99% and 55%, respectively.

Turning to `O=C(O)CC[C@H](NC(=O)N[C@@H](CCCCNC(=O)[C@H](Cc1ccc2ccccc2c1)NC(=O)[C@H]1CC[C@H](CNC(=O)CCCCn2cc(COc3cc(CN4CCOCCOCCN(Cc5cccc(C(=O)O)n5)CCOCCOCC4)nc(C(=O)O)c3)nn2)CC1)C(=O)O)C(=O)O` [[^225Ac]Ac-mcp-M-PSMA, metal not drawn], the “RCY NP (7 d)” value in series [1] (ligand 10^−5 M), in series [1] (ligand 10^−6 M) and in series [1] (ligand 10^−7 M) was 99% in each case. Besides, the logD7.4 in the series “logD7.4 determination” is listed as −2.8 ± 0.1. Also, in the series with LNCaP cells [2], the “decrease of relative cell number” value is recorded as “approximately one third”. Moreover, the “Percentage amount of colonies referred to the non-radioactive control” value in the series on LNCaP cells [3] (setting [4]) amounted to 107.2%; with LNCaP cells [3] (setting [5]) it was 91.8%; in the series with LNCaP cells [3] (1 h incubation time, 5 kBq/mL), 19.4%; with LNCaP cells [3] (1 h incubation time, 50 kBq/mL) it was 1.4%; in the series with LNCaP cells [3] (setting [6]), 116.8%; in the series with LNCaP cells [3] (setting [7]), 57.2%. Also, the “Percentage amount of colonies referred to the non-radioactive control” value with LNCaP cells [3] (4 h incubation time, 5 kBq/mL) is 5.3%; in the series with LNCaP cells [3] (4 h incubation time, 50 kBq/mL), 0.9%. Also, in the series with LNCaP tumor-bearing mice (setting [8]), the Tumor-to-blood ratio is 188.42. The tumor-to-muscle ratio in the series with LNCaP tumor-bearing mice (setting [8]) turned out to be 310.82.

Take `O=C(O)CC[C@H](NC(=O)N[C@@H](CCCCNC(=O)[C@H](Cc1ccc2ccccc2c1)NC(=O)[C@H]1CC[C@H](CNC(=O)CCCCn2cc(COc3cc(CN4CCOCCOCCN(Cc5cc(OCc6cn(CCCCC(=O)NC[C@H]7CC[C@H](C(=O)N[C@@H](Cc8ccc9ccccc9c8)C(=O)NCCCC[C@H](NC(=O)N[C@@H](CCC(=O)O)C(=O)O)C(=O)O)CC7)nn6)cc(C(=O)O)n5)CCOCCOCC4)nc(C(=O)O)c3)nn2)CC1)C(=O)O)C(=O)O` [[^225Ac]Ac-mcp-D-PSMA, metal not drawn]: the “RCY NP (7 d)” value in series [1] (ligand 10^−5 M) was 99%; in series [1] (ligand 10^−6 M), 99%; in series [1] (ligand 10^−7 M), 95%. In “logD7.4 determination”, the logD7.4 was −2.5 ± 0.1. In the series on LNCaP cells [2], the “decrease of relative cell number” value is reported as “approximately one third”. The “inhibition of colony formation” value in the series on LNCaP cells [3] (5 and 50 kBq/mL, 4 h) is recorded as ~100%. Moreover, the “Percentage amount of colonies referred to the non-radioactive control” value with LNCaP cells [3] (setting [4]) was found to be 75.0%; in the series on LNCaP cells [3] (setting [5]), 3.8%; with LNCaP cells [3] (1 h incubation time, 5 kBq/mL), 3.1%; in the series on LNCaP cells [3] (1 h incubation time, 50 kBq/mL), 0.8%; with LNCaP cells [3] (setting [6]) it was 49.1%; in the series on LNCaP cells [3] (setting [7]) it was 6.2%. For the same compound, the “Percentage amount of colonies referred to the non-radioactive control” value is recorded as 0.5% in the series on LNCaP cells [3] (4 h incubation time, 5 kBq/mL) and 0.4% in the series on LNCaP cells [3] (4 h incubation time, 50 kBq/mL). Besides, the Tumor-to-blood ratio in the series on LNCaP tumor-bearing mice (mouse, in vivo) turned out to be 158.11. The tumor-to-muscle ratio with LNCaP tumor-bearing mice (mouse, in vivo) is listed as 275.77.

On to `O=C([O-])c1cccc(CN2CCOCCOCCN(Cc3cccc(C(=O)[O-])n3)CCOCCOCC2)n1.[225Ac+3]` [[^225Ac]Ac-macropa, reference compound], for which the “RCY NP (7 d)” value in series [1] (ligand 10^−5 M), in series [1] (ligand 10^−6 M) and in series [1] (ligand 10^−7 M) was 99% each time. In addition, the “RCY RP (7 d)” value in series [1] (ligand 10^−5 M), in series [1] (ligand 10^−6 M) and in series [1] (ligand 10^−7 M) was 99% throughout.

For the origin of these results see publication PMC8073976, “Towards Targeted Alpha Therapy with Actinium-225: Chelators for Mild Condition Radiolabeling and Targeting PSMA—A Proof of Concept Study” (Cancers, 2021).
